Measured values: the Kinase Knowledgebase extract (Sharma et al. 2016)

Molecular target: EGFR (human) (UniProt P00533)
Sequence (P00533 whole entry, looked up): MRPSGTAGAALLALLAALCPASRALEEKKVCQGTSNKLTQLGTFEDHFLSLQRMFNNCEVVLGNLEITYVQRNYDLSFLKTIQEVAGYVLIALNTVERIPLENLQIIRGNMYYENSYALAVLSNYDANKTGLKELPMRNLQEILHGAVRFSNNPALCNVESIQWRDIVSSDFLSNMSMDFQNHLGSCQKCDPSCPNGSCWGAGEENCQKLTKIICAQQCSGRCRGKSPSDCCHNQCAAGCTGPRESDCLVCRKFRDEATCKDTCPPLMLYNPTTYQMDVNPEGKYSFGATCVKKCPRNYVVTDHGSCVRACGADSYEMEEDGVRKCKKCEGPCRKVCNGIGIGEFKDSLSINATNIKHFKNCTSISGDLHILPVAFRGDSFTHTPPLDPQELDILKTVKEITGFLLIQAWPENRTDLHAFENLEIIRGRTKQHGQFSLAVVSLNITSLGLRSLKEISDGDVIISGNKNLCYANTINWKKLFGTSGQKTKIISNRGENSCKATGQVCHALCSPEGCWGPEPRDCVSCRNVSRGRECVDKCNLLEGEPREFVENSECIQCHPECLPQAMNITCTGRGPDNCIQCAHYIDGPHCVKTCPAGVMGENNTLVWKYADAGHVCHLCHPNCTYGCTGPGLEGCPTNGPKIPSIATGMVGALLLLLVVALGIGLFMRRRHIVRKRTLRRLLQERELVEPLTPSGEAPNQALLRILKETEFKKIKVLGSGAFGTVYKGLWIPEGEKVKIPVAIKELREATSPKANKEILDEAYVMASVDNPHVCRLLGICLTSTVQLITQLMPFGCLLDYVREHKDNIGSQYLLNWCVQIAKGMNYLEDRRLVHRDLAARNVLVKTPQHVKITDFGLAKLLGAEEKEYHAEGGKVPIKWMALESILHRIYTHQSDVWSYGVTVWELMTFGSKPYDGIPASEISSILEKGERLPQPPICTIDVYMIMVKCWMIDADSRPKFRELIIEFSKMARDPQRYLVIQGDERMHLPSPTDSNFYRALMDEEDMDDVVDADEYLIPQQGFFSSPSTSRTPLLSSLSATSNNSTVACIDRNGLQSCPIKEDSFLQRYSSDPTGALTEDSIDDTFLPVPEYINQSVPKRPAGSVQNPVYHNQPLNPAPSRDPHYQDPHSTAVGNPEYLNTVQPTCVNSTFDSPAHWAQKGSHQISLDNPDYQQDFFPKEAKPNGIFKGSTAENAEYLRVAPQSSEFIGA

Question: With C=CC(=O)N1CCC[C@@H](n2nc(-c3ccc(CNS(=O)(=O)c4cc(C)ccc4OC)cc3)c3c(N)ncnc32)C1 as the compound, how does the IC50 read?
Answer: Its IC50 is 351 nM.

Question: Which IC50 does the source give for C=CC(=O)N1CCC[C@@H](n2nc(-c3ccc(CNS(C)(=O)=O)cc3)c3c(N)ncnc32)C1 here?
Answer: The IC50 was 112 nM.

Question: For C=CC(=O)N1CCC[C@@H](n2nc(-c3ccc(CNS(=O)(=O)c4ccc(Cl)cc4)cc3)c3c(N)ncnc32)C1, which IC50 is on record?
Answer: The IC50 was 60.5 nM.

Question: With C=CC(=O)N1CCC[C@@H](n2nc(-c3ccc(CNS(=O)(=O)c4ccccc4Cl)cc3)c3c(N)ncnc32)C1 as the compound, how does the IC50 read?
Answer: The IC50 was 168 nM.

Question: For C=CC(=O)N1CCC[C@@H](n2nc(-c3ccc(CNS(=O)(=O)C4CCCCC4)cc3)c3c(N)ncnc32)C1, which IC50 is on record?
Answer: The IC50 was 45 nM.

Question: For C=CC(=O)N1CCC[C@@H](n2nc(-c3ccc(CNS(=O)(=O)c4cccc(Cl)c4)cc3)c3c(N)ncnc32)C1, which IC50 is on record?
Answer: Its IC50 is 45.7 nM.

Question: C=CC(=O)N1CCC[C@@H](n2nc(-c3ccc(CNS(=O)(=O)c4ccccc4OC(F)(F)F)cc3)c3c(N)ncnc32)C1 was tested. Which IC50 did it give?
Answer: Its IC50 is 452 nM.

Question: Which IC50 does the source give for C=CC(=O)N1CCC[C@@H](n2nc(-c3ccc(CNS(=O)(=O)c4ccc(C)cc4C)cc3)c3c(N)ncnc32)C1 here?
Answer: The IC50 was 250 nM.

Question: For C=CC(=O)N1CCC[C@@H](n2nc(-c3ccc(CNS(=O)(=O)c4cccc5ccccc45)cc3)c3c(N)ncnc32)C1, which IC50 is on record?
Answer: The IC50 was 58.1 nM.

Question: How did the IC50 turn out when C=CC(=O)N1CCC[C@@H](n2nc(-c3ccc(CNS(=O)(=O)c4cc(F)ccc4OC)cc3)c3c(N)ncnc32)C1 was run?
Answer: The IC50 was 163 nM.

Question: For C=CC(=O)N1CCC[C@@H](n2nc(-c3ccc(CNS(=O)(=O)c4ccccc4F)cc3)c3c(N)ncnc32)C1, which IC50 is on record?
Answer: The IC50 was 41 nM.

Question: For C=CC(=O)N1CCC[C@@H](n2nc(-c3ccc(CNS(=O)(=O)c4ccc(-c5ccccc5)cc4)cc3)c3c(N)ncnc32)C1, which IC50 is on record?
Answer: The IC50 was 73 nM.

Question: How did the IC50 turn out when C=CC(=O)N1CCC[C@@H](n2nc(-c3ccc(CNS(=O)(=O)c4cc(C)ccc4C)cc3)c3c(N)ncnc32)C1 was run?
Answer: The IC50 was 194 nM.

Question: How did the IC50 turn out when N#CN1CCC[C@@H](n2nc(-c3ccc(CNS(=O)(=O)c4cccc(F)c4)cc3)c3c(N)ncnc32)C1 was run?
Answer: The IC50 was 272 nM.

Question: With C=CC(=O)N1CCC[C@@H](n2nc(-c3ccc(CNS(=O)(=O)c4ccc5c(c4)CCC5)cc3)c3c(N)ncnc32)C1 as the compound, how does the IC50 read?
Answer: Its IC50 is 73.3 nM.

Question: C=CC(=O)N1CCC[C@@H](n2nc(-c3ccc(CNS(=O)(=O)c4ccccc4)cc3)c3c(N)ncnc32)C1 was tested. Which IC50 did it give?
Answer: Its IC50 is 265 nM.

Question: Which IC50 does the source give for C=CC(=O)N1CCC[C@@H](n2nc(-c3ccc(CNS(=O)(=O)c4ccc(C)cc4)cc3)c3c(N)ncnc32)C1 here?
Answer: The IC50 was 90.7 nM.

Question: How did the IC50 turn out when C=CC(=O)N1CCC[C@@H](n2nc(-c3ccc(CNS(=O)(=O)c4cccc(C)c4)cc3)c3c(N)ncnc32)C1 was run?
Answer: Its IC50 is 86.2 nM.

Question: For N#CN1CCC[C@@H](n2nc(-c3ccc(CNS(=O)(=O)c4cccc(Cl)c4)cc3)c3c(N)ncnc32)C1, which IC50 is on record?
Answer: The IC50 was 572 nM.

Question: How did the IC50 turn out when C=CC(=O)N1CCC[C@@H](n2nc(-c3ccc(CNS(=O)(=O)c4cccc(F)c4)cc3)c3c(N)ncnc32)C1 was run?
Answer: Its IC50 is 81.7 nM.

Question: How did the IC50 turn out when C=CC(=O)N1CCC[C@@H](n2nc(-c3ccc(CNS(=O)(=O)c4ccccc4C(F)(F)F)cc3)c3c(N)ncnc32)C1 was run?
Answer: The IC50 was 86.3 nM.

Question: C=CC(=O)N1CCC[C@@H](n2nc(-c3ccc(CNS(=O)(=O)c4ccc(C)cc4F)cc3)c3c(N)ncnc32)C1 was tested. Which IC50 did it give?
Answer: The IC50 was 174 nM.

Question: How did the IC50 turn out when C=CC(=O)N1CCC[C@@H](n2nc(-c3ccc(CNS(=O)(=O)c4cc(C(F)(F)F)ccc4F)cc3)c3c(N)ncnc32)C1 was run?
Answer: Its IC50 is 151 nM.

Question: With C=CC(=O)N1CCC[C@@H](n2nc(-c3ccc(CNS(=O)(=O)c4ccc(C)cc4OC)cc3)c3c(N)ncnc32)C1 as the compound, how does the IC50 read?
Answer: Its IC50 is 323 nM.

Question: For C=CC(=O)N1CCC[C@@H](n2nc(-c3ccc(CNS(=O)(=O)c4cc(F)cc(C(F)(F)F)c4)cc3)c3c(N)ncnc32)C1, which IC50 is on record?
Answer: The IC50 was 97.7 nM.

Question: How did the IC50 turn out when C=CC(=O)N1CCC[C@@H](n2nc(-c3ccc(CNS(=O)(=O)c4ccc(F)c(C(F)(F)F)c4)cc3)c3c(N)ncnc32)C1 was run?
Answer: Its IC50 is 199 nM.

Question: With C=CC(=O)N1CCC[C@@H](n2nc(-c3ccc(CNS(=O)(=O)c4ccc(OCC)cc4)cc3)c3c(N)ncnc32)C1 as the compound, how does the IC50 read?
Answer: The IC50 was 371 nM.

Question: With C=CC(=O)N1CCC[C@@H](n2nc(-c3ccc(CNS(=O)(=O)c4c(F)cccc4F)cc3)c3c(N)ncnc32)C1 as the compound, how does the IC50 read?
Answer: Its IC50 is 95.7 nM.

Question: C=CC(=O)N1CCC[C@@H](n2nc(-c3ccc(CNS(=O)(=O)c4ccc(F)cc4F)cc3)c3c(N)ncnc32)C1 was tested. Which IC50 did it give?
Answer: Its IC50 is 124 nM.

Question: For C=CC(=O)N1CCC[C@@H](n2nc(-c3ccc(CNS(=O)(=O)CC)cc3)c3c(N)ncnc32)C1, which IC50 is on record?
Answer: Its IC50 is 132 nM.

Question: C=CC(=O)N1CCC[C@@H](n2nc(-c3ccc(CNS(=O)(=O)c4ccccc4C)cc3)c3c(N)ncnc32)C1 was tested. Which IC50 did it give?
Answer: The IC50 was 91.8 nM.

Question: How did the IC50 turn out when C=CC(=O)N1CCC[C@@H](n2nc(-c3ccc(CNS(=O)(=O)c4ccc5ccccc5c4)cc3)c3c(N)ncnc32)C1 was run?
Answer: Its IC50 is 98.7 nM.

Question: How did the IC50 turn out when C=CC(=O)N1CCC[C@@H](n2nc(-c3ccc(CNS(=O)(=O)c4cccc(OC)c4)cc3)c3c(N)ncnc32)C1 was run?
Answer: Its IC50 is 290 nM.

Question: For C=CC(=O)N1CCC[C@@H](n2nc(-c3ccc(CNS(=O)(=O)c4cc(C)ccc4F)cc3)c3c(N)ncnc32)C1, which IC50 is on record?
Answer: The IC50 was 64.6 nM.

Question: With C=CC(=O)N1CCC[C@@H](n2nc(-c3ccc(CNS(=O)(=O)c4cc(Cl)ccc4F)cc3)c3c(N)ncnc32)C1 as the compound, how does the IC50 read?
Answer: Its IC50 is 120 nM.

Question: C=CC(=O)N1CCC[C@@H](n2nc(-c3ccc(CNS(=O)(=O)CCC(F)(F)F)cc3)c3c(N)ncnc32)C1 was tested. Which IC50 did it give?
Answer: Its IC50 is 277 nM.

Question: How did the IC50 turn out when C=CC(=O)N1CCC[C@@H](n2nc(-c3ccc(CNS(=O)(=O)c4ccc(F)cc4)cc3)c3c(N)ncnc32)C1 was run?
Answer: Its IC50 is 363 nM.

Question: For C=CC(=O)N1CCC[C@@H](n2nc(-c3ccc(CNS(=O)(=O)c4ccc(OC)cc4)cc3)c3c(N)ncnc32)C1, which IC50 is on record?
Answer: Its IC50 is 129 nM.

Question: For C=CC(=O)N1CCC[C@@H](n2nc(-c3ccc(CN(C)S(=O)(=O)c4ccccc4F)cc3)c3c(N)ncnc32)C1, which IC50 is on record?
Answer: Its IC50 is 78.8 nM.

Question: C=CC(=O)N1CCC[C@@H](n2nc(-c3ccc(CNS(=O)(=O)c4cc(F)cc(F)c4)cc3)c3c(N)ncnc32)C1 was tested. Which IC50 did it give?
Answer: The IC50 was 120 nM.
